Laboratory results published in PubChem BioAssay (NCI).
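GI50: concentration for 50% inhibition of growth. At the TGI there is no net growth.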

Assays:
Test in all cases: NCI-60 cell line screen, 384-well format
[1] = tested on: A498 renal
[2] = tested on: SNB-75 CNS
[3] = tested on: SR leukemia
[4] = tested on: MDA-MB-231 breast
[5] = tested on: ACHN renal
[6] = tested on: SK-OV-3 ovarian
[7] = tested on: HCT-116 colon
[8] = tested on: SNB-19 CNS
[9] = tested on: TK-10 renal
[10] = tested on: SK-MEL-2 melanoma
[11] = tested on: OVCAR-3 ovarian
[12] = tested on: KM12 colon
[13] = tested on: NCI-H23 lung
[14] = tested on: NCI-H522 lung
[15] = tested on: HL-60(TB) leukemia
[16] = tested on: T-47D breast
[17] = tested on: CCRF-CEM leukemia
[18] = tested on: BT-549 breast
[19] = tested on: RXF 393 renal
[20] = tested on: MDA-MB-435 melanoma
[21] = tested on: SF-268 CNS
[22] = tested on: PC-3 prostate
[23] = tested on: EKVX NSCLC
[24] = tested on: NCI-H226 lung
[25] = tested on: LOX IMVI melanoma
[26] = tested on: UACC-257 melanoma
[27] = tested on: OVCAR-4 ovarian
[28] = tested on: NCI-H322M lung
[29] = tested on: HCC-2998 colon
[30] = tested on: IGROV1 ovarian
[31] = tested on: RPMI-8226 leukemia
[32] = tested on: M14 melanoma
[33] = tested on: HT29 colon
[34] = tested on: U251 glioblastoma
[35] = tested on: OVCAR-5 ovarian
[36] = tested on: K-562 leukemia
[37] = tested on: COLO 205 colon
[38] = tested on: SK-MEL-28 melanoma
[39] = tested on: SK-MEL-5 melanoma
[40] = tested on: MALME-3M melanoma
[41] = tested on: SW-620 colon
[42] = tested on: 786-0 renal
[43] = tested on: MDA-MB-468 breast
[44] = tested on: HS 578T breast
[45] = tested on: SN12C renal
[46] = tested on: UACC-62 melanoma
[47] = tested on: SF-295 CNS
[48] = tested on: HOP-92 NSCLC

Work on `O=C1CC(c2ccc(N3CCOCC3)cc2)(c2ccsc2)NC(=O)C1Sc1ccccc1Cl` (stereo not given) yielded a GI50 [1] of 18.5 µM, a TGI [1] of over 88.7 µM and a GI50 [2] of over 100 µM. For the same compound, the TGI [2] was over 100 µM, the GI50 [3] was 0.692 µM and the TGI [3] was 1.74 µM. For the same compound, the GI50 [4] was 13.9 µM, the TGI [4] was over 100 µM and the GI50 [5] was 33 µM. The TGI [5] was 98.7 µM, the GI50 [6] was over 85.3 µM and the TGI [6] was over 100 µM. It also gave a GI50 [7] of 36.8 µM, a TGI [7] of over 100 µM and a GI50 [8] of 16.9 µM. The TGI [8] was 63.8 µM, the GI50 [9] was 75.9 µM and the TGI [9] was over 100 µM. It also gave a GI50 [10] of over 56.1 µM, a TGI [10] of over 100 µM and a GI50 [11] of 34.2 µM. The TGI [11] was over 100 µM, the GI50 [12] was over 57.6 µM and the TGI [12] was over 100 µM. The GI50 [13] was over 95.8 µM, the TGI [13] was over 100 µM and the GI50 [14] was 6.42 µM. It also gave a TGI [14] of over 100 µM, a GI50 [15] of 2.82 µM and a GI50 [16] of 66 µM. It also gave a TGI [16] of over 100 µM, a GI50 [17] of 3.39 µM and a TGI [17] of over 21.9 µM. It also gave a GI50 [18] of 3.71 µM, a TGI [18] of 28.3 µM and a GI50 [19] of 2.58 µM. The TGI [19] was 7.47 µM, the GI50 [20] was over 100 µM and the TGI [20] was over 100 µM. It also gave a GI50 [21] of 51.2 µM, a TGI [21] of over 100 µM and a GI50 [22] of 43.6 µM. It also gave a TGI [22] of over 100 µM, a GI50 [23] of 98.9 µM and a TGI [23] of over 100 µM. It also gave a GI50 [24] of 50.3 µM, a TGI [24] of over 100 µM and a GI50 [25] of 35.9 µM. It also gave a TGI [25] of over 100 µM, a GI50 [26] of over 100 µM and a TGI [26] of over 100 µM. It also gave a GI50 [27] of 34 µM, a TGI [27] of over 100 µM and a GI50 [28] of over 100 µM. For the same compound, the TGI [28] was over 100 µM, the GI50 [29] was over 100 µM and the TGI [29] was over 100 µM. For the same compound, the GI50 [30] was 46.5 µM, the TGI [30] was over 100 µM and the GI50 [31] was 10.5 µM. It also gave a TGI [31] of 41.2 µM, a GI50 [32] of 53.1 µM and a TGI [32] of over 100 µM. The GI50 [33] was 62.7 µM, the TGI [33] was over 100 µM and the GI50 [34] was 5.73 µM. For the same compound, the TGI [34] was 65.7 µM, the GI50 [35] was 67.7 µM and the TGI [35] was over 100 µM. For the same compound, the GI50 [36] was 3.97 µM, the TGI [36] was over 100 µM and the GI50 [37] was over 100 µM. For the same compound, the TGI [37] was over 100 µM, the GI50 [38] was 66.7 µM and the TGI [38] was over 100 µM. It also gave a GI50 [39] of over 100 µM, a TGI [39] of over 100 µM and a GI50 [40] of over 51.2 µM. It also gave a TGI [40] of over 100 µM, a GI50 [41] of 16.7 µM and a TGI [41] of over 51.8 µM. For the same compound, the GI50 [42] was 2.71 µM, the TGI [42] was over 21.3 µM and the GI50 [43] was over 100 µM. For the same compound, the TGI [43] was over 100 µM, the GI50 [44] was 1.76 µM and the TGI [44] was 3.69 µM. For the same compound, the GI50 [45] was 4.53 µM, the TGI [45] was 23.4 µM and the GI50 [46] was 12.7 µM. The TGI [46] was over 100 µM, the GI50 [47] was 35.7 µM and the TGI [47] was over 100 µM. It also gave a GI50 [48] of 3.34 µM and a TGI [48] of 18.7 µM.
For `C[C@@H]1CN(C(=O)c2ccc(NC(=O)c3cc(O[C@H](C)c4c(Cl)ccc(F)c4Cl)c(N)nn3)cc2)C[C@H](C)N1`, the GI50 [1] was 2.04 µM, the TGI [1] was 3.88 µM and the GI50 [2] was 2.21 µM. For the same compound, the TGI [2] was 4.14 µM, the TGI [3] was 0.0109 µM and the GI50 [4] was 1.74 µM. For the same compound, the TGI [4] was 5.52 µM, the GI50 [5] was 3.05 µM and the TGI [5] was 11.1 µM. The GI50 [6] was 5.26 µM, the TGI [6] was 16.2 µM and the GI50 [7] was 1.41 µM. It also gave a TGI [7] of 4.34 µM, a GI50 [8] of 4.02 µM and a TGI [8] of 13.5 µM. It also gave a GI50 [9] of 3.5 µM, a TGI [9] of 10.3 µM and a GI50 [10] of 1.77 µM. For the same compound, the TGI [10] was 4.27 µM, the GI50 [11] was 2.75 µM and the TGI [11] was 7.2 µM. It also gave a GI50 [12] of 0.0407 µM, a TGI [12] of 5.37 µM and a GI50 [13] of 0.642 µM. It also gave a TGI [13] of 3.76 µM, a GI50 [14] of 1.99 µM and a TGI [14] of 7.16 µM. The GI50 [15] was 1.25 µM, the TGI [15] was 2.51 µM and the GI50 [16] was 3.17 µM. The TGI [16] was 8.97 µM, the GI50 [17] was 0.395 µM and the TGI [17] was 1.01 µM. For the same compound, the GI50 [18] was 2.39 µM, the TGI [18] was 4.27 µM and the GI50 [19] was 1.74 µM. For the same compound, the TGI [19] was 3.27 µM, the GI50 [20] was 1.61 µM and the TGI [20] was 6.93 µM. For the same compound, the GI50 [21] was 1.31 µM, the TGI [21] was 3.77 µM and the GI50 [22] was 2.58 µM. For the same compound, the TGI [22] was 7.16 µM, the GI50 [23] was 1.52 µM and the TGI [23] was 5.93 µM. The GI50 [24] was 2.12 µM, the TGI [24] was 8.92 µM and the GI50 [25] was 1.26 µM. For the same compound, the TGI [25] was 2.52 µM, the GI50 [26] was 1.69 µM and the TGI [26] was 3.07 µM. It also gave a GI50 [27] of 4.1 µM, a TGI [27] of 10.2 µM and a GI50 [28] of 5.08 µM. For the same compound, the TGI [28] was 16.1 µM, the GI50 [29] was 2.14 µM and the TGI [29] was 7.68 µM. For the same compound, the GI50 [30] was 2.36 µM, the TGI [30] was 10.2 µM and the GI50 [31] was 0.943 µM. It also gave a TGI [31] of 2.49 µM, a GI50 [32] of 2.47 µM and a TGI [32] of 6.48 µM. The GI50 [33] was 1.22 µM, the TGI [33] was 2.59 µM and the GI50 [34] was 2 µM. The TGI [34] was 5.25 µM, the GI50 [35] was 1.54 µM and the TGI [35] was 4.7 µM. It also gave a GI50 [36] of 0.152 µM, a TGI [36] of 0.319 µM and a GI50 [37] of 1.33 µM. The TGI [37] was 3.94 µM, the GI50 [38] was 2.82 µM and the TGI [38] was 7.32 µM. The GI50 [39] was 1.53 µM, the TGI [39] was 3.48 µM and the GI50 [40] was 1.44 µM. For the same compound, the TGI [40] was 3.08 µM, the GI50 [41] was 1.69 µM and the TGI [41] was 3.48 µM. The GI50 [42] was 1.86 µM, the TGI [42] was 3.5 µM and the GI50 [43] was 1.9 µM. For the same compound, the TGI [43] was 3.7 µM, the GI50 [44] was 1.8 µM and the TGI [44] was 3.44 µM. For the same compound, the GI50 [45] was 1.82 µM, the TGI [45] was 11.7 µM and the GI50 [46] was 1.34 µM. The TGI [46] was 2.89 µM, the GI50 [47] was 1.72 µM and the TGI [47] was 5.81 µM. It also gave a GI50 [48] of 0.66 µM and a TGI [48] of 2.42 µM.
